Assay results published in the supplement of paper PMC10307832.

Experiments:
Test in all cases: relative viability (nuclei count vs DMSO), 5 days (fraction); higher = more cells survive
[1] = compound: C=C(c1ccc(C(=O)O)cc1)c1cc2c(cc1C)C(C)(C)CCC2(C)C [Bexarotene] + O=C(c1cc(Cc2n[nH]c(=O)c3ccccc23)ccc1F)N1CCN(C(=O)C2CC2)CC1 [Olaparib] (partner 8 µM)
How it was run: (§1)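 For relative viability, nuclei counts in treated wells were divided by those in vehicle wells. Lung cancer cell lines had been pin-tool dosed in 1536-well plates the day after seeding and cultured for 5 days, then fixed and stained in one step (final 0.05% Triton X-100, 1% formaldehyde, 1 ug/ml Hoechst) and imaged at 4×. Doses were one drug alone or a fixed anchor-drug dose plus five library-drug doses (not always all listed) in √10 steps, and values are duplicate-plate medians.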

[2] = compound: C=C(c1ccc(C(=O)O)cc1)c1cc2c(cc1C)C(C)(C)CCC2(C)C [Bexarotene] + CC(C)C[C@H](NC(=O)[C@H](Cc1ccccc1)NC(=O)c1cnccn1)B(O)O [Bortezomib] (partner 0.002 µM)
How it was run: as §1

[3] = compound: C=C(c1ccc(C(=O)O)cc1)c1cc2c(cc1C)C(C)(C)CCC2(C)C [Bexarotene] + CS(=O)(=O)N1CCN(Cc2cc3nc(-c4cccc5[nH]ncc45)nc(N4CCOCC4)c3s2)CC1 [Pictilisib] (partner 1 µM)
How it was run: as §1

[4] = compound: C=C(c1ccc(C(=O)O)cc1)c1cc2c(cc1C)C(C)(C)CCC2(C)C [Bexarotene] + CC(=O)Nc1cccc(-n2c(=O)n(C3CC3)c(=O)c3c(Nc4ccc(I)cc4F)n(C)c(=O)c(C)c32)c1 [Trametinib] (partner 0.02 µM)
How it was run: as §1

Row | Cell Line | relative viability ([1]; first compound 0.08 µM) | relative viability ([1]; first compound 0.253 µM) | relative viability ([1]; first compound 0.8 µM) | relative viability ([1]; first compound 2.53 µM) | relative viability ([1]; first compound 8 µM) | relative viability ([2]; first compound 0.08 µM) | relative viability ([2]; first compound 0.253 µM) | relative viability ([2]; first compound 0.8 µM) | relative viability ([2]; first compound 2.53 µM) | relative viability ([2]; first compound 8 µM) | relative viability ([3]; first compound 0.08 µM) | relative viability ([3]; first compound 0.253 µM) | relative viability ([3]; first compound 0.8 µM) | relative viability ([3]; first compound 2.53 µM) | relative viability ([3]; first compound 8 µM) | relative viability ([4]; first compound 0.08 µM) | relative viability ([4]; first compound 0.253 µM) | relative viability ([4]; first compound 0.8 µM) | relative viability ([4]; first compound 2.53 µM) | relative viability ([4]; first compound 8 µM)
1 | NCI-H2347 | 0.583 | 0.614 | 0.552 | 0.42 | 0.647 | 1.2 | 0.904 | 0.818 | 0.664 | 0.835 | 0.597 | 0.62 | 0.461 | 0.743 | 0.605 | 0.31 | 0.235 | 0.25 | 0.279 | 0.299
2 | NCI-H2405 | 0.93 | 0.849 | 0.7 | 0.852 | 0.83 | 1.07 | 0.945 | 0.836 | 0.896 | 0.92 | 0.58 | 0.455 | 0.326 | 0.538 | 0.523 | 0.823 | 0.819 | 0.66 | 0.749 | 0.693
3 | NCI-H3122 | 0.667 | 0.751 | 0.617 | 0.645 | 0.618 | 1.09 | 1.05 | 1.09 | 1.15 | 1.13 | 0.82 | 0.821 | 0.647 | 0.855 | 0.802 | 0.25 | 0.229 | 0.191 | 0.238 | 0.224
4 | PC-3 [JPC-3] | 1.01 | 1.1 | 1.02 | 1.06 | 0.938 | 0.9 | 0.843 | 0.68 | 0.858 | 0.771 | 0.868 | 0.749 | 0.519 | 0.656 | 0.666 | 0.708 | 0.719 | 0.595 | 0.654 | 0.678
5 | PC-14 | 0.268 | 0.349 | 0.243 | 0.213 | 0.214 | 0.926 | 0.885 | 0.856 | 0.825 | 0.719 | 0.663 | 0.724 | 0.7 | 0.704 | 0.565 | 0.708 | 0.901 | 0.961 | 0.818 | 0.821
6 | RERF-LC-KJ | 0.991 | 0.885 | 0.812 | 0.888 | 0.865 | 1.17 | 1.12 | 1.03 | 1.06 | 1.17 | 0.492 | 0.592 | 0.503 | 0.387 | 0.57 | 0.879 | 0.85 | 0.814 | 0.873 | 0.799
7 | SK-LU-1 | 0.557 | 0.43 |  | 0.417 | 0.399 | 1.23 | 1.6 | 0.88 | 1.32 | 1.05 | 0.717 | 0.663 |  | 0.567 | 0.63 | 0.548 | 0.587 |  | 0.579 | 0.517
8 | SW 1573 | 0.537 | 0.461 | 0.499 | 0.445 | 0.41 | 0.896 | 0.923 | 0.955 | 0.803 | 0.763 | 0.554 | 0.459 | 0.447 | 0.42 | 0.436 | 0.546 | 0.507 | 0.538 | 0.502 | 0.456
9 | UMC-11 | 0.387 | 0.425 | 0.525 | 0.353 | 0.37 | 0.877 | 0.796 | 0.8 | 1.03 | 0.637 | 0.973 | 0.814 | 0.756 | 0.805 | 0.802 | 0.638 | 0.668 | 0.623 | 0.634 | 0.658
